The values that follow come from patent US12479830B2, “Homopiperazinyl and homopiperidinyl quinazolin-4(3H)-one derivatives having multimodal activity against pain” (ESTEVE PHARMACEUTICALS, S.A., priority 2019, dated 2025).

One may read the Ki as a measure of affinity in units of concentration, obtained from inhibition or displacement.

One assay has as its target T1, Human σ1 receptor (Homo sapiens, UniProt Q99720).
T1 construct: expressed in transfected cells; host or cells: HEK-293
Briefly: Human σ1 receptor radioligand assay ([3H](+)-pentazocine binding). Particulars: binding to the σ1 receptor, expressed as Ki class; + also covers inhibition between 1% and 50%. In outline: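 Membranes (7 μg) were incubated with 5 nM [3H](+)-pentazocine in 50 mM Tris-HCl pH 8 for 120 min at 37° C. Non-specific binding was defined with 10 μM haloperidol. Values are % inhibition at 1 or 10 μM or Ki from five concentrations, read by filtration and scintillation counting.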

Assay [1] concerns the target Human α2δ-1 subunit of Cav2.2 calcium channel (Homo sapiens, UniProt P54289). Kind of assay: Human α2δ-1 subunit of Cav2.2 calcium channel assay ([3H]-gabapentin binding). Particulars: binding to the α2δ-1 subunit of voltage-gated calcium channels, expressed as Ki class; + also covers inhibition between 1% and 50%. A digest of the protocol:
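Human α2δ-1 enriched membranes (2.5 μg) incubated 60 min at 27° C. with 15 nM [3H]-gabapentin in 10 mM Hepes-KOH pH 7.4; non-specific binding with 10 μM pregabalin. Filtration binding; % inhibition at 1 or 10 μM, or Ki from five concentrations.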

Sequence of Human α2δ-1 subunit of Cav2.2 calcium channel (P54289 25-1103): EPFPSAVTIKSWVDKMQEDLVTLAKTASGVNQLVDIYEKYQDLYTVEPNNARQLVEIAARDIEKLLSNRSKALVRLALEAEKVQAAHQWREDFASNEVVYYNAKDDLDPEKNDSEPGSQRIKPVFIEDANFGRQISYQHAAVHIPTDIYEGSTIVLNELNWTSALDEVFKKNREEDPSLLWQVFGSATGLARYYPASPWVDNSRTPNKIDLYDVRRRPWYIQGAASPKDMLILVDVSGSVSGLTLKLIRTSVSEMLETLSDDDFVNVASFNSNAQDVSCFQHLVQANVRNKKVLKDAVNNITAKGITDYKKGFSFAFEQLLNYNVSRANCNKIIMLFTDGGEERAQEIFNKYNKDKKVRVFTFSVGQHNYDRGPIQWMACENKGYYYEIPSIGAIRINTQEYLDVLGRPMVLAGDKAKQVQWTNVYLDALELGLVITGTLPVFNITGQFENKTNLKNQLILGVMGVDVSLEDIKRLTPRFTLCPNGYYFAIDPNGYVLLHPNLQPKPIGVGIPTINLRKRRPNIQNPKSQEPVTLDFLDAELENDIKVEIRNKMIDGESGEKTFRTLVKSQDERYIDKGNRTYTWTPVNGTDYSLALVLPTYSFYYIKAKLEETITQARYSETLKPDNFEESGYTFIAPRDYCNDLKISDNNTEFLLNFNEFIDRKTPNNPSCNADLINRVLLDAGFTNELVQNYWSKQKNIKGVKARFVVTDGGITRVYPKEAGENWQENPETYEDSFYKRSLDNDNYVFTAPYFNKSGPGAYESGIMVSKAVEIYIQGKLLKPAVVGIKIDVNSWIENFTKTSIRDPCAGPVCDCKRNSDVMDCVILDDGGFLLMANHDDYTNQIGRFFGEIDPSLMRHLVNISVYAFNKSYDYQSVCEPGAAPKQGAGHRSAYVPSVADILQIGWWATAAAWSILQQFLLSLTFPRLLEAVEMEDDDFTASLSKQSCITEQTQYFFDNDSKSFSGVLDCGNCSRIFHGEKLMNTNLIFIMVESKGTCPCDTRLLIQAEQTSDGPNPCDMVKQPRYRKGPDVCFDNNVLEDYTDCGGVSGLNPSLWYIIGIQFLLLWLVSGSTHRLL
T1 sequence (Q99720 whole entry): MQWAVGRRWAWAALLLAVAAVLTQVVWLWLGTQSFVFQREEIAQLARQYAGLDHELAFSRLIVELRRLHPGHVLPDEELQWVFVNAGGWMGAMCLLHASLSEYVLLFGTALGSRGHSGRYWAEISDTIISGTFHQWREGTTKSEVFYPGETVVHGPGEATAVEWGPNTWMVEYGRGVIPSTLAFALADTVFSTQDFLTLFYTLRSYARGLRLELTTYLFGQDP

Consider `CCCC(c1nc2ccc(Br)cc2c(=O)n1CC)N1CCCN(CC)CC1` (centres unmarked) [Example 7, 6-bromo-3-ethyl-2-(1-(4-ethyl-1,4-diazepan-1-yl)butyl)quinazolin-4(3H)-one], for which the Ki (on Human σ1 receptor; in assay [1]) was less than 500 nM each time.

For `CCCC(c1nc2ccc(Br)c(F)c2c(=O)n1CC)N1CCCNCC1` (centres unmarked) [Example 59, 2-(1-(1,4-diazepan-1-yl)butyl)-6-bromo-3-ethyl-5-fluoroquinazolin-4(3H)-one], the Ki was more than 1000 nM at Human σ1 receptor and less than 500 nM in assay [1].

Regarding `CCCC(c1nc2ccc(Br)cc2c(=O)n1CC)N1CCNCC(C)(C)C1` (centres unmarked) [Example 28, 6-bromo-2-(1-(6,6-dimethyl-1,4-diazepan-1-yl)butyl)-3-ethylquinazolin-4(3H)-one], the inhibitory constant (Ki) at Human σ1 receptor lay within 500 to 1000 nM; in assay [1], 500 to 5000 nM.

On to `CCCC(c1nc2ccc(Br)cc2c(=O)n1C)N1CCCN(C)CC1` (centres unmarked) [Example 84, 6-bromo-3-methyl-2-(1-(4-methyl-1,4-diazepan-1-yl)butyl)quinazolin-4(3H)-one], for which the Ki at Human σ1 receptor was less than 500 nM; in assay [1], 500 to 5000 nM.

Regarding `CCCC(c1nc2ncc(F)cc2c(=O)n1CC)N1CCCN(C)CC1` (centres unmarked) [Example 182], the Ki was more than 1000 nM on Human σ1 receptor and less than 500 nM in assay [1].

In the case of `CCCC(c1nc2ncc(F)cc2c(=O)n1CC1CC1)N1CCCN(C)CC1` (centres unmarked) [Example 184, 3-(cyclopropylmethyl)-6-fluoro-2-(1-(4-methyl-1,4-diazepan-1-yl)butyl)pyrido[2,3-d]pyrimidin-4(3H)-one], the Ki is more than 1000 nM at Human σ1 receptor and less than 500 nM in assay [1].

For the compound `CCC[C@H](c1nc2cc(F)c(F)cc2c(=O)n1CC)N1CCCN[C@@H](C)C1` [Example 260, 3-ethyl-6,7-difluoro-2-((R)-1-((S)-3-methyl-1,4-diazepan-1-yl)butyl)quinazolin-4(3H)-one], the Ki was more than 1000 nM at Human σ1 receptor and less than 500 nM in assay [1].

Turning to `CCCC(c1nc2ccc(Br)cc2c(=O)n1CCC)N1CCCN(C)CC1` (centres unmarked) [Example 18, 6-bromo-2-(1-(4-methyl-1,4-diazepan-1-yl)butyl)-3-propylquinazolin-4(3H)-one], the Ki (on Human σ1 receptor; in assay [1]) was less than 500 nM in each case.

As for `CCC[C@H](c1nc2ccc(Cl)cc2c(=O)n1CCC)N1CCCN(C)CC1` [Example 159, (R)-6-Chloro-2-(1-(4-methyl-1,4-diazepan-1-yl)butyl)-3-propylquinazolin-4(3H)-one], the Ki (at Human σ1 receptor; in assay [1]) was less than 500 nM throughout.

Turning to `CCC[C@H](c1nc2ccc(F)cc2c(=O)n1Cc1ccoc1)N1CCCN(CC)CC1` [Example 228, (R)-2-(1-(4-ethyl-1,4-diazepan-1-yl)butyl)-6-fluoro-3-(furan-3-ylmethyl)quinazolin-4(3H)-one], the values for the Ki (at Human σ1 receptor; in assay [1]) were less than 500 nM and 500 to 5000 nM, respectively.

Consider `CCCC(c1nc2ccc(Br)cc2c(=O)n1CC)N1CCN(C)CC(F)(F)C1` (centres unmarked) [Example 42, 6-bromo-2-(1-(6,6-difluoro-4-methyl-1,4-diazepan-1-yl)butyl)-3-ethylquinazolin-4(3H)-one], for which the results for the Ki (at Human σ1 receptor; in assay [1]) were more than 1000 nM and more than 5000 nM, respectively.

In the case of `CCC[C@H](c1nc2ccc(Cl)cc2c(=O)n1C)N1CCN[C@H](C)CC1` [Example 245, 6-chloro-3-methyl-2-((R)-1-((R)-5-methyl-1,4-diazepan-1-yl)butyl)quinazolin-4(3H)-one], the figures for the inhibitory constant (Ki) (at Human σ1 receptor; in assay [1]) were 500 to 1000 nM and more than 5000 nM, respectively.

As for `CCC[C@@H](c1nc2ccc(Br)cc2c(=O)n1CCC)N1CCNC[C@H](C)C1` [Example 69, 6-bromo-2-((S)-1-((S)-6-methyl-1,4-diazepan-1-yl)butyl)-3-propylquinazolin-4(3H)-one], the inhibition constant Ki on Human σ1 receptor was more than 1000 nM; in assay [1], 500 to 5000 nM.

For `CCC[C@@H](c1nc2ncc(Br)cc2c(=O)n1CC)N1CCN(C)C[C@@H](C)C1` [Example 189, 6-bromo-2-((S)-1-((R)-4,6-dimethyl-1,4-diazepan-1-yl)butyl)-3-ethylpyrido[2,3-d]pyrimidin-4(3H)-one], the Ki was more than 1000 nM on Human σ1 receptor and more than 5000 nM in assay [1].

Regarding `CCCC(c1nc2cnc(OC)cc2c(=O)n1CC)N1CCCN(C)CC1` (centres unmarked) [Example 191, 3-ethyl-6-methoxy-2-(1-(4-methyl-1,4-diazepan-1-yl)butyl)pyrido[3,4-d]pyrimidin-4(3H)-one], the Ki is more than 1000 nM on Human σ1 receptor and less than 500 nM in assay [1].

In the case of `CCCC(c1nc2ccc(NC3CCN(C)CC3)cc2c(=O)n1CC)N1CCCN(C)CC1` (centres unmarked) [Example 206, 3-Ethyl-2-(1-(4-methyl-1,4-diazepan-1-yl)butyl)-6-((1-methylpiperidin-4-yl)amino)quinazolin-4(3H)-one], the Ki on Human σ1 receptor is more than 1000 nM; in assay [1], less than 500 nM.

As to `CCC[C@@H](c1nc2ccc(Br)cc2c(=O)n1CC)N1CCCN(CC)CC1` [Example 154, (S)-6-bromo-3-ethyl-2-(1-(4-ethyl-1,4-diazepan-1-yl)butyl)quinazolin-4(3H)-one], the Ki was less than 500 nM at Human σ1 receptor and more than 5000 nM in assay [1].

Turning to `CCC[C@H](c1nc2ccc(F)cc2c(=O)n1CC)N1CCCN(C)CC1` [Example 209, (R)-3-Ethyl-6-fluoro-2-(1-(4-methyl-1,4-diazepan-1-yl)butyl)quinazolin-4(3H)-one], the Ki (at Human σ1 receptor; in assay [1]) was less than 500 nM in each case.

Consider `CCC[C@H](c1nc2ccc(Br)cc2c(=O)n1CC)N1CCCN(C)CC1` [Example 151, (R)-6-Bromo-3-ethyl-2-(1-(4-methyl-1,4-diazepan-1-yl)butyl)quinazolin-4(3H)-one], for which the Ki (at Human σ1 receptor; in assay [1]) was less than 500 nM in each case.

In the case of `CCCC(c1nc2ccc(Br)c(F)c2c(=O)n1CC)N1CCCN(CC)CC1` (centres unmarked) [Example 52, 6-bromo-3-ethyl-2-(1-(4-ethyl-1,4-diazepan-1-yl)butyl)-5-fluoroquinazolin-4(3H)-one], the inhibition constant (Ki) on Human σ1 receptor is less than 500 nM; in assay [1] it was 500 to 5000 nM.

Consider `CCCC(c1nc2cc(C)c(Br)cc2c(=O)n1CC)N1CCCNCC1` (centres unmarked) [Example 44, 2-(1-(1,4-diazepan-1-yl)butyl)-6-bromo-3-ethyl-7-methylquinazolin-4(3H)-one], for which the values for the Ki (at Human σ1 receptor; in assay [1]) were more than 1000 nM and less than 500 nM, respectively.

Regarding `CCC[C@H](c1nc2ncc(Br)cc2c(=O)n1CC)N1CCN(C)C[C@H](C)C1` [Example 187, 6-bromo-2-((R)-1-((S)-4,6-dimethyl-1,4-diazepan-1-yl)butyl)-3-ethylpyrido[2,3-d]pyrimidin-4(3H)-one], the Ki at Human σ1 receptor was more than 1000 nM; in assay [1], less than 500 nM.

As to `CCC[C@@H](c1nc2ncc(F)cc2c(=O)n1CC)N1CCCN(C)CC1` [Example 202, (S)-3-ethyl-6-fluoro-2-(1-(4-methyl-1,4-diazepan-1-yl)butyl)pyrido[2,3-d]pyrimidin-4(3H)-one], the Ki at Human σ1 receptor is more than 1000 nM; in assay [1], more than 5000 nM.

With `CCCC(c1nc2cc(F)c(Cl)cc2c(=O)n1CC)N1CCCN(C)CC1` (centres unmarked) [Example 89, 6-chloro-3-ethyl-7-fluoro-2-(1-(4-methyl-1,4-diazepan-1-yl)butyl)quinazolin-4(3H)-one], the Ki (on Human σ1 receptor; in assay [1]) was less than 500 nM throughout.

In the case of `CCC[C@H](c1nc2ccc(C(F)(F)F)cc2c(=O)n1CC)N1CCN[C@@H](C)CC1` [Example 259, 3-ethyl-2-((R)-1-((S)-5-methyl-1,4-diazepan-1-yl)butyl)-6-(trifluoromethyl)quinazolin-4(3H)-one], the Ki (on Human σ1 receptor; in assay [1]) was less than 500 nM throughout.
